Source: patent US7373256B2, “Method for the identification of molecules and biomarkers using chemical, biochemical and biological data” (priority 2005, dated 2008)

Experiments:
rats [1] = assay: Study 5: 1H/19F NMR correlation study of urine from rats dosed with 3-fluoroaniline; assay type: in vivo, rat; conditions: 50 mg/kg, negative covariance with 19F δ-128.4 resonance
Method: A number of rats were dosed with 3-fluoroaniline (3-FA) at 50 mg/kg. Urine samples were collected over dry ice (i) pre-dose, (ii) after 0-24 hours, and (iii) after 24-48 hours. ^1H NMR and ^1H-decoupled ^19F NMR spectra were collected. The collection of ^1H NMR spectra was treated as a first data set (i.e., a matrix with one row for each ^1H NMR spectrum, and one column for each ^1H NMR chemical shift variable, n x p) and the collection of ^19F-NMR spectra was treated as a second data set (i.e., a matrix with one row for each ^19F NMR spectrum, and one column for each ^19F NMR chemical shift variable, n×q). The correlation matrix and the covariance matrix (each p×q or q×p) were calculated.
This resonance was selected for the correlation study.
As mentioned above, the correlation matrix and the covariance matrix (each p×q or q×p) were calculated. The correlation between the selected variable (^19F δ-128.4) of the first data set and all of the variables of the second data set (i.e., the range of ^1H δ) is given in the column/row of the correlation matrix associated with this variable (i.e., the column/row for ^19F δ-128.4). The covariance between this variable (^19F δ-128.4) and all of the variables of the second data set (i.e., the range of ^1H δ) is given in the column/row of the covariance matrix associated with this variable (i.e., the column/row for ^19F δ-128.4). […]

rats [2] = conditions: hydrazine poisoning; stated as well known; cited from earlier work
rats [3] = assay: Study 7: 1H NMR / UPLC-MS correlation study of urine from rats dosed with hydrazine; assay type: in vivo, rat; conditions: hydrazine poisoning
Method: A number of rats were dosed with hydrazine. Urine samples were collected. ^1H NMR and mass spectra were recorded for each sample. (Note that the mass spectra were recorded using an UPLC-MS experiment, in which individual mass spectra are recorded as function of elution time, here over a period of six minutes with a water-acetonitrile gradient; however, for the present study, these spectra were “summed” in order to present a single mass spectrum for each sample. This gives, in effect, “virtual direct injection mass spectra.” This is a known approach for improving MS detection in complex mixtures.)
The collection of ^1H NMR spectra was treated as a first data set (i.e., a matrix with one row for each ^1H NMR spectrum, and one column for each ^1H NMR chemical shift variable, n×p) and the collection of mass spectra was treated as a second data set (i.e., a matrix with one row for each mass spectrum, and one column for each m/z variable, n×q). The correlation matrix and the covariance matrix (each p×q or q×p) were calculated. A correlation map illustrating a part of the correlation matrix, as a function of both ^1H chemical shift (from about δ 2 to about δ 4.5) and m/z (from about 100 to about 350), is shown in FIG. 21. The correlation is indicated by colour (blue is negative correlation and red is positive correlation). A “summed” ^1H NMR spectrum is shown alongside the ^1H δ axis for illustration. Similarly, a “summed” mass spectrum is shown alongside the m/z axis for illustration.
A correlation map illustrating another (very small) part of the correlation matrix is shown in FIG. 22, specifically for ^1H chemical shift from about δ 8.8 to about δ 9.3 and m/z from about 80 to about 200. Again, a “summed” ^1H NMR spectrum is shown alongside the ^1H δ axis for illustration. Similarly, a “summed” mass spectrum is shown alongside the m/z axis for illustration. […] As expected, the mass spectrum peak at m/z 138 (for NMNA) is highly correlated with the ^1H NMR peaks at about δ 9.12 about δ 8.84 (also for NMNA). […]

Row | Structure (SMILES) | effect on endogenous hippurate level in urine (rats [1]) | change in N-methylnicotinamide (NMND) (rats [2]) | change in N-methylnicotinic acid (NMNA) (rats [2]) | change in urinary creatine (rats [3]; m/z 90, 116) | change in urinary 2-aminoadipate (rats [3]; m/z 98, 116) | change in urinary hippurate (rats [3]; m/z 105, 180)
1 | Nc1cccc(F)c1 [3-fluoroaniline] | reduces the amount of hippurate | – | – | – | – | –
2 | NN [hydrazine] | – | increase | decrease | increased | increased | decreased
